Reference: patent US20050220718A1, “Stable pharmaceutical solution formulations for pressurized metered dose inhalers” (Chiesi Farmaceutici S.p.A., priority 2004, published 2005)

How the values were obtained:
[1] = Stability of acidified TA 2005-HFA 134a solutions in cans coated with a fluorocarbon polymer, stored upright at 50° C.; type: physicochemical
Protocol: Comparative Example 1 (corresponding to Example 7 of WO 01/89480). Stability of acidified TA 2005-HFA 134a solutions in cans coated with a fluorocarbon polymer.
(§1) A solution of TA 2005 (3.5 μg/50 μl) was prepared by dissolving 0.84 mg of the active ingredient in HFA 134a containing 12% w/w ethanol and 1.0% w/w of isopropyl myristate. pMDI coated cans containing 1.0, 1.4, and 1.8 μl of 0.08 M hydrochloric acid (corresponding respectively to an apparent pH of about 4.8, 3.2, and 2.9) were set down on storage, upright at 50° C., and samples taken for analysis of TA 2005 contents at appropriate intervals.
Each value is expressed as percent nominal drug concentration.

[2] = Apparent pH (acidity function pH') of acidified TA 2005 solutions; type: physicochemical; details: TA 2005 3.5 μg/50 μl in HFA 134a
From the text: The attribution ‘apparent’ is used as pH is indeed characteristic of aqueous liquids where water is the dominant component (Mole Fraction >0.95). […] Although the Nernst equation with respect to EMF applies and the pH-meter glass electrode system will generate a variable milli-volt output according to proton concentration and vehicle polarity, the “pH” meter reading is not a true pH value. The meter reading represents an apparent pH or acidity function (pH′).
Rather concentrated, i.e., more than about 10 M, preferably more than about 12 M, and most preferably about 15 M phosphoric acid is used to adjust the apparent pH. In the examples that follow 85%, i.e., 15.2M phosphoric acid has been used. The amount of acid to be added to reach the desired apparent pH will be pre-determined in the model vehicle reported before
1.0 M hydrochloric acid was added incrementally to 50 ml of HFA 43-10MEE (Vertrel XF) containing 20% w/w ethanol and the pH′ was measured after each aliquot of acid.
as §1

[3] = Stability study of TA 2005 HFA 134a formulation with 15.2M phosphoric acid, upright and inverted cans at 40° C. and 75% relative humidity; type: physicochemical; details: TA 2005 1 μg/63 μl, 15% w/w ethanol, phosphoric acid 15.2M 0.001 to 0.0027% w/w
Protocol: The formulation of Table 3 (120 actuations canister, overage of 30 actuations) was filled in aluminum canisters having the internal surface coated with teflon and fitted with commercial valves having a 63 μl metering chamber. A stability study was carried out by storing the formulation in upright and inverted cans at 40° C. and 75% relative humidity.

[4] = Stability of TA 2005 + budesonide HFA 134a compositions with phosphoric acid, 40° C. and 75% relative humidity; type: physicochemical; details: TA 2005 1 μg + budesonide 200 μg/actuation, phosphoric acid 85% 0.0032 or 0.0064% w/w, 0.15% w/w water
Protocol: The two compositions containing TA 2005 and budesonide as active ingredients and two different concentrations of phosphoric acid as shown in Table 4 were prepared.
Volume of the valve: 63 μl; strength: TA 2005 1 μg+budesonide 200 μg/actuation; no. of actuations: 120 (34 overfilling doses).
The two active ingredients in the compositions were stable after three months storage at 40° C. and 75% relative humidity, giving residual percent amounts of at least 95% TA 2005 and about 100% of Budesonide.

[5] = 4 μg per actuation, HCl stabilized, stored upright at 5° C., after nine months (WO 03/074025); cited from earlier work
[6] = Stability study of TA 2005 HFA 134a formulations with 0.1M hydrochloric acid, upright cans at 40° C. and 75% relative humidity; type: physicochemical; details: TA 2005 1 μg/63 μl, 15% w/w ethanol
Protocol: Two aluminum canisters having the internal surface coated with teflon and fitted with commercial valves having a 63 μl metering chamber were filled with the following formulations shown in Table 2. A stability study was carried out by storing the formulations in upright cans at 40° C. and 75% relative humidity.

[7] = HFA propellant and ethanol, conventional aluminum or plastic coated glass cans; 40° C., 75% relative humidity, one month (WO 99/65460); cited from earlier work

For `COc1ccc(C[C@@H](C)NC[C@H](O)c2ccc(O)c3[nH]c(=O)ccc23)cc1.Cl` [TA 2005, 8-hydroxy-5-[(1R)-1-hydroxy-2-[[(1R)-2-(4-methoxyphenyl)-1-methylethyl]amino]ethyl]-2(1H)-quinolinone hydrochloride], the “TA 2005 content, percent nominal drug concentration, 50° C.; 22 days upright” value ([1]; 1.0 μl 0.08M HCl per can) was 98.3%, the “TA 2005 content, percent nominal drug concentration, 50° C.; 83 days upright” value ([1]; 1.0 μl 0.08M HCl per can) was 99.4% and the “TA 2005 content, percent nominal drug concentration, Initial” value ([1]; 1.0 μl 0.08M HCl per can, TA 2005 3.5 μg/50 μl, 12% w/w ethanol, 1.0% w/w isopropyl myristate) was 100.0%. The “TA 2005 content, percent nominal drug concentration, 50° C.; 22 days upright” value ([1]; 1.4 μl 0.08M HCl per can) was 98.2%, the “TA 2005 content, percent nominal drug concentration, 50° C.; 83 days upright” value ([1]; 1.4 μl 0.08M HCl per can) was 98.8% and the “TA 2005 content, percent nominal drug concentration, Initial” value ([1]; 1.4 μl 0.08M HCl per can) was 100.0%. The “TA 2005 content, percent nominal drug concentration, 50° C.; 22 days upright” value ([1]; 1.8 μl 0.08M HCl per can) was 90.2%, the “TA 2005 content, percent nominal drug concentration, 50° C.; 83 days upright” value ([1]; 1.8 μl 0.08M HCl per can) was 88.1% and the “TA 2005 content, percent nominal drug concentration, Initial” value ([1]; 1.8 μl 0.08M HCl per can) was 100.0%. For the same compound, the “apparent pH” value ([2]; 1.0 μl of 0.08 M hydrochloric acid per can) was “about 4.8”, the “apparent pH” value ([2]; 1.4 μl of 0.08 M hydrochloric acid per can) was ~3.2 and the “apparent pH” value ([2]; 1.8 μl of 0.08 M hydrochloric acid per can) was ~2.9. The “residual percent amount of TA 2005 after three months of storage” value [3] was “up to 98%”, the “residual percent amount after three months storage” value [4] was “at least 95%” and the “TA 2005 assay” value [5] was “higher than 95%”. For the same compound, the “percent amount of TA 2005 after three months of storage” value ([6]; 0.1M HCl 0.018% w/w) was 73% and the “percent amount of TA 2005 after three months of storage” value ([6]; 0.1M HCl 0.027% w/w) was 77%.
In the case of `COc1ccc(C[C@@H](C)NC[C@H](O)c2ccc(O)c(NC=O)c2)cc1.COc1ccc(C[C@@H](C)NC[C@H](O)c2ccc(O)c(NC=O)c2)cc1.O=C(O)/C=C/C(=O)O` [formoterol fumarate], the loss of drug [7] is listed as “about 10%”.
